{"source": "paper PMC5336470", "about": "“Insights into the mechanism of membrane pyrophosphatases by combining experiment and computer simulation” (Structural Dynamics, 2017)", "molecular_target": "T1, VrPPase (Vigna radiata, UniProt P21616)", "T1 construct": "VrPPase reconstituted into liposomes (proteoliposomes); homodimer", "T1 sequence (P21616 2-766)": "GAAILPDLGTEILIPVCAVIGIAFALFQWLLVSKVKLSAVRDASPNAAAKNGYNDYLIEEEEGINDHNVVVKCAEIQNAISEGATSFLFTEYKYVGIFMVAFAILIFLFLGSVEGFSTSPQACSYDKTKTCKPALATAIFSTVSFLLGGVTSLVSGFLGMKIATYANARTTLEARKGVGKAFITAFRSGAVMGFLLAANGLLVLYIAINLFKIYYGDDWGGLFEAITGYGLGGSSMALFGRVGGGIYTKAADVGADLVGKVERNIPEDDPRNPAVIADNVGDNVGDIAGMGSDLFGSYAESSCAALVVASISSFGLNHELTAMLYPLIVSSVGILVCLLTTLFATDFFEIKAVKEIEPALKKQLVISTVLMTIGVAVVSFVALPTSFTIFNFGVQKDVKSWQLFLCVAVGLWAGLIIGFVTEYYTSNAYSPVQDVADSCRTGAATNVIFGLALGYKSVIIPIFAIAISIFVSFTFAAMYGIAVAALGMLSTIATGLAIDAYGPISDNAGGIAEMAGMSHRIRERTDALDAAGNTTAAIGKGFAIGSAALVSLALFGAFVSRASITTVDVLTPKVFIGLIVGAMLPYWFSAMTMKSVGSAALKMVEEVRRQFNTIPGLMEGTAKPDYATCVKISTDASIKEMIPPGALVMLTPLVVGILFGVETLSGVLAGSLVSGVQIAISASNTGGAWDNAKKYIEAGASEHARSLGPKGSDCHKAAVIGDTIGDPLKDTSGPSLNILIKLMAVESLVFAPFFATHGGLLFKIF", "experiment": "SURFE2R N1 electrometric proton-pumping current, proteoliposomes", "assay_type": "biochemical", "details": "200 uM K2HPO4 as control, 10 uM CCCP as protonophore control"}
{"smiles": "O=P(O)(O)CP(=O)(O)O", "note": "[methylene diphosphonate]", "values": [{"measurement": "SURFE2R N1 electrometric proton-pumping current, proteoliposomes", "setting": "50 uM MEDP, non-hydrolysable substrate analogue", "value": "VrPPase in the presence of another substrate analogue, methylene diphosphonate (MEDP), similarly produces a change"}]}
{"smiles": "O=P(O)(O)NP(=O)(O)O", "note": "[imidodiphosphate]", "values": [{"measurement": "SURFE2R N1 electrometric proton-pumping current, proteoliposomes", "setting": "50 uM IDP, non-hydrolysable substrate analogue", "value": "IDP-bound VrPPase specifically pumps protons"}]}
{"smiles": "O=P(O)(O)OP(=O)(O)O", "note": "[pyrophosphate]", "values": [{"measurement": "SURFE2R N1 electrometric proton-pumping current, proteoliposomes", "setting": "50 uM K4PPi", "value": "Addition of CCCP to membrane-embedded VrPPase in the presence of PPi reduces the ion-pumping current"}]}
